Here are results for 10 molecules from patent publication US20250236608A1, “EGFR INHIBITORS” (Blueprint Medicines Corporation, priority 2022, published 2025).

The target in assay [1] is EGFR (d746-750) (Homo sapiens (Human), UniProt P00533, DEL746-750). The assay can be described thus: Biochemical EGFR inhibition assay, EGFR (d746-750). As to conditions: Caliper mobility shift; 1.0 mM ATP or ATP Km; read-out: Enz EGFR_Exon19-del746-750 IC50.
Assay [2] concerns the target pEGFR (Tyr1068) in PC-9 cells (Ex19Del) (Homo sapiens (Human), UniProt P00533, DEL746-750). The assay can be described thus: PC-9 pEGFR AlphaLISA assay. The format is cell-based. As to conditions: 4 hours incubation, p-EGFR (Tyr1068) AlphaLISA, read-out: Ext pEGFR_PC-9 Ex19Del IC50. A digest of the protocol: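 First, cells settled overnight in 10% FBS medium. Second, a 10-point, 4-fold series of test agents was applied for 4 h at 37° C. Third, lysates were probed with AlphaLISA acceptor and donor beads, incubated overnight in the dark. Last, IC50 was taken from the dose-response.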

For assay [3], the target named is EGFR L858R (Homo sapiens (Human), UniProt P00533, L858R). The assay can be described thus: Biochemical EGFR inhibition assay, EGFR L858R. The note with it: Caliper mobility shift; 1.0 mM ATP or ATP Km; read-out: Enz EGFR_L858R IC50.
Sequence of EGFR L858R (P00533 25-1210 L858R): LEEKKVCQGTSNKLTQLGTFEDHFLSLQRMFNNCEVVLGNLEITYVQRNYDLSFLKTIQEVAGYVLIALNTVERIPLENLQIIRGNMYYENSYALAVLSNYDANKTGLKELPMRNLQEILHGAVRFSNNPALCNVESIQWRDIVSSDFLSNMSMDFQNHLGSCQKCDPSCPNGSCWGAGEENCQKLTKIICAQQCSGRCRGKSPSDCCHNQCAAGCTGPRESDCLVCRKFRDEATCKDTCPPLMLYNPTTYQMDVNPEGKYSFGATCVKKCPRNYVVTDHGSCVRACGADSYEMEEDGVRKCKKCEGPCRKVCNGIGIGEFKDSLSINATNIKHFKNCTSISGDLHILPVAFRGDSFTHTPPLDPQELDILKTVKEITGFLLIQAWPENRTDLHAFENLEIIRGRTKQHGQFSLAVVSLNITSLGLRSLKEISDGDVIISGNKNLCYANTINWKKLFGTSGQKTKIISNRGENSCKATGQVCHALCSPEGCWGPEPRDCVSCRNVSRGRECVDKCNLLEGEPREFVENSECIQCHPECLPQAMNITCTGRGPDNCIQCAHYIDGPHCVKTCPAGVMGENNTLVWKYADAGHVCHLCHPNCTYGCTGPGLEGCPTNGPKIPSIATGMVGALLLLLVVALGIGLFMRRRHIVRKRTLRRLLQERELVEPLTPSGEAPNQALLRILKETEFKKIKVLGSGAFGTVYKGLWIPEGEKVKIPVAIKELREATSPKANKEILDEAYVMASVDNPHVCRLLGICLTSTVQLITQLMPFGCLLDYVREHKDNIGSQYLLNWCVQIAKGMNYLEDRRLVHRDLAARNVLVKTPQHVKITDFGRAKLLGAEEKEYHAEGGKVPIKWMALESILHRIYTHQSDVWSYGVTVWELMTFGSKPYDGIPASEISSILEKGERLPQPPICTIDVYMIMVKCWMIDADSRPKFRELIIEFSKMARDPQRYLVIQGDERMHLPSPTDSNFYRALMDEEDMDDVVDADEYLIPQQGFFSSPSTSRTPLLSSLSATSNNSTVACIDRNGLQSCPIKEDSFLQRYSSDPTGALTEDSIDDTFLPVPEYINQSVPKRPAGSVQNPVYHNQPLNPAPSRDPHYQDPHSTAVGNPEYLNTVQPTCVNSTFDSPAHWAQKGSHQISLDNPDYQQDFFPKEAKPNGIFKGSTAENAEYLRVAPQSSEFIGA

Sequence of EGFR (d746-750) (P00533 other isoform, or with tags, fused parts or gaps del 1-694/del 746-750 limits assumed): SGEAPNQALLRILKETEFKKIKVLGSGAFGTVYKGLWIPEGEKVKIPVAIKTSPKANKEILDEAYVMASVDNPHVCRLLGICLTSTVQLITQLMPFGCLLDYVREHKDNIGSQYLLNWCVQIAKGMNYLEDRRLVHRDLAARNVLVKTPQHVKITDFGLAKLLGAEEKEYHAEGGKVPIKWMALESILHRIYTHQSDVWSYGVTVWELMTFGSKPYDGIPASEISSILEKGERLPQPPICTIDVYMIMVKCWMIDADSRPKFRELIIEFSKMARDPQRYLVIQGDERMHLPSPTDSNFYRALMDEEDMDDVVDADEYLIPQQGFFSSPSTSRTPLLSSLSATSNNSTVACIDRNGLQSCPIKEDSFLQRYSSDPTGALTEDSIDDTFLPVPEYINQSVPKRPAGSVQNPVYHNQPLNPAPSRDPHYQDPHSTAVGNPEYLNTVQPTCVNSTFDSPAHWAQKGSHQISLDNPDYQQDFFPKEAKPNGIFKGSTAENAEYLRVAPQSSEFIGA
Sequence of pEGFR (Tyr1068) in PC-9 cells (Ex19Del) (P00533 other isoform, or with tags, fused parts or gaps del 746-750): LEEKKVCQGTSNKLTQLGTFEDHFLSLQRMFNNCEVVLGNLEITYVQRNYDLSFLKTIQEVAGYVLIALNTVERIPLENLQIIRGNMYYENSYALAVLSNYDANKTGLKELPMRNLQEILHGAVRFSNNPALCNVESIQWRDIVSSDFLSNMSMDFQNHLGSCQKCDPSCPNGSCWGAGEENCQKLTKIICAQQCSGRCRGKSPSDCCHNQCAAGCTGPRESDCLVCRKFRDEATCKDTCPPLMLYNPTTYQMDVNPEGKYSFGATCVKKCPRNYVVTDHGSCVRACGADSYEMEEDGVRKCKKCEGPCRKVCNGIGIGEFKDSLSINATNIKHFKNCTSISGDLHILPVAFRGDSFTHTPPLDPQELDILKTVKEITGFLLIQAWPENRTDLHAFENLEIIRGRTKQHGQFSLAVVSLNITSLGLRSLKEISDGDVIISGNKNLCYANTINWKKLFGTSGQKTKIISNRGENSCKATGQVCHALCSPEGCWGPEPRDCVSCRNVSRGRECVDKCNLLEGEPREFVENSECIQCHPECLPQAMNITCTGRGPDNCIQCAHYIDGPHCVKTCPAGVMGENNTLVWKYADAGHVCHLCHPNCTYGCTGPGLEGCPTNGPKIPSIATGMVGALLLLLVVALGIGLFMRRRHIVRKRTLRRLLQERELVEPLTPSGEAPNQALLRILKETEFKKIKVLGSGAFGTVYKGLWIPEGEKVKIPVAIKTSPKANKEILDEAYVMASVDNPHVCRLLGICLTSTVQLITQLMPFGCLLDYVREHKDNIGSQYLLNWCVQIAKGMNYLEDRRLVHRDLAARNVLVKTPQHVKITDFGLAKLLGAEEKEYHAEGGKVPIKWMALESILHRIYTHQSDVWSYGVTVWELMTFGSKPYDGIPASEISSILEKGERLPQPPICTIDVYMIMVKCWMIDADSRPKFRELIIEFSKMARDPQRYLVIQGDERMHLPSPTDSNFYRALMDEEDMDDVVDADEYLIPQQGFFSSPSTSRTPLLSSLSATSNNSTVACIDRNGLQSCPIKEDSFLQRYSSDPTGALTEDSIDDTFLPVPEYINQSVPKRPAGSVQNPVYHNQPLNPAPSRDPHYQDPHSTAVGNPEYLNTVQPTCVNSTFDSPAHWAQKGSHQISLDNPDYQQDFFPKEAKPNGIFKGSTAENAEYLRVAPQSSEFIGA

The IC50 is the midpoint of a concentration-inhibition curve. `CCn1cc(-c2ncnc3cc(OC)c([C@H](C)O)cc23)c(-c2ccccc2)n1` (single isomer, unassigned) [Example 105, (S)-1-(4-(1-ethyl-3-phenyl-1H-pyrazol-4-yl)-7-methoxyquinazolin-6-yl)ethan-1-ol or (R)-1-(4-(1-ethyl-3-phenyl-1H-pyrazol-4-yl)-7-methoxyquinazolin-6-yl)ethan-1-ol]: the figures for the IC50 in assay [1], in assay [2] and in assay [3] were 1.3 nM, 6.5 nM and 3.3 nM, respectively.

Regarding `CCOc1cc2ncnc(-c3cn(C4CC4)nc3-c3ccccc3)c2cc1CO` [Example 135, (4-(1-cyclopropyl-3-phenyl-1H-pyrazol-4-yl)-7-ethoxyquinazolin-6-yl)methanol], the results for the IC50 in assay [1], in assay [2] and in assay [3] were 0.7 nM, 3.1 nM and 1.2 nM, respectively.

For the molecule `COc1cc2ncnc(-c3cn(C)nc3-c3ccccc3)c2cc1NC(=O)[C@@H]1CCCN1C` (single isomer, unassigned) [Example 243, (R)—N-(7-methoxy-4-(1-methyl-3-phenyl-1H-pyrazol-4-yl)quinazolin-6-yl)-1-methylpyrrolidine-2-carboxamide or (S)—N-(7-methoxy-4-(1-methyl-3-phenyl-1H-pyrazol-4-yl)quinazolin-6-yl)-1-methylpyrrolidine-2-carboxamide], the figures for the IC50 in assay [1], in assay [2] and in assay [3] were 2.4 nM, 4.4 nM and 4.9 nM, respectively.

In the case of `CCOc1cc2ncnc(-c3cn(C)nc3-c3ccccc3)c2cc1OC(=O)N1CCN(C)C[C@@H]1C` [Example 96, 7-ethoxy-4-(1-methyl-3-phenyl-1H-pyrazol-4-yl)quinazolin-6-yl(S)-2,4-dimethylpiperazine-1-carboxylate], the values for the IC50 in assay [1], in assay [2] and in assay [3] were 1.1 nM, 1.9 nM and 1.6 nM, respectively.

For the molecule `COc1cc2ncnc(-c3cn(C)nc3-c3ccccc3)c2cc1NC(=O)c1cn(C(F)(F)F)nc1C` [Example 235, N-(7-methoxy-4-(1-methyl-3-phenyl-1H-pyrazol-4-yl)quinazolin-6-yl)-3-methyl-1-(trifluoromethyl)-1H-pyrazole-4-carboxamide], the IC50 in assay [1] is 0.9 nM; in assay [2], 1.5 nM; in assay [3] it was 1.6 nM.

As to `COc1cc2ncnc(-c3cn(C)nc3-c3ccccc3)c2cc1NC(=O)c1cn(C(C)C)nc1C` [Example 217, 1-isopropyl-N-(7-methoxy-4-(1-methyl-3-phenyl-1H-pyrazol-4-yl)quinazolin-6-yl)-3-methyl-1H-pyrazole-4-carboxamide], the IC50 in assay [1] was determined as 0.9 nM; in assay [2], 1.2 nM; in assay [3] it was 1.7 nM.

Take `COc1cc2ncnc(-c3cn(C)nc3-c3ccccc3)c2cc1O[C@H]1CCOC[C@@H]1F` [Example 17, 6-(((3S,4S)-3-fluorotetrahydro-2H-pyran-4-yl)oxy)-7-methoxy-4-(1-methyl-3-phenyl-1H-pyrazol-4-yl)quinazoline]: the IC50 was determined as 1.1 nM in assay [1], 2.4 nM in assay [2] and 1.8 nM in assay [3].

As for `CCC(=O)Nc1cc2c(-c3cn(C)nc3-c3ccccc3)ncnc2cc1OC` [Example 322, N-(7-methoxy-4-(1-methyl-3-phenyl-1H-pyrazol-4-yl)quinazolin-6-yl)propionamide], the IC50 in assay [1] stood at 1.7 nM; in assay [2], 1.6 nM; in assay [3] it was 2.1 nM.

As to `COc1cc2ncnc(-c3cn(C)nc3-c3ccccc3F)c2nc1NC(=O)C1CC1` [Example 356, N-(4-(3-(2-fluorophenyl)-1-methyl-1H-pyrazol-4-yl)-7-methoxypyrido[3,2-d]pyrimidin-6-yl)cyclopropanecarboxamide], the IC50 was 1.1 nM in assay [1], 1.2 nM in assay [2] and 1.9 nM in assay [3].

Turning to `COc1cc2ncnc(-c3cn(C)nc3-c3ccccc3)c2cc1-c1cnn(CCN(C)C)c1` [Example 233, 2-(4-(7-methoxy-4-(1-methyl-3-phenyl-1H-pyrazol-4-yl)quinazolin-6-yl)-1H-pyrazol-1-yl)-N,N-dimethylethan-1-amine], the IC50 in assay [1] turned out to be 1.7 nM; in assay [2], 2.5 nM; in assay [3] it was 2.9 nM.
